Reference: article PMC9533837 (Antiviral Research, 2003)
Converted amounts (≈) assume the structure as drawn.

Tests used:
VAR isolate 102 = assay: organism not typed; assay type: cell-based, variola; settings: Vero, read-out: IC50, VAR isolate 102
VAR isolate Heidelberg = assay: organism not typed; assay type: cell-based, variola; settings: Vero, read-out: IC50, VAR isolate Heidelberg
[1] = tested on: VAC, including recombinant VAC; settings: mouse, in vivo; cited from earlier work
VAR isolate V72-119 = assay: organism not typed; assay type: cell-based, variola; settings: Vero, read-out: IC50, VAR isolate V72-119
VAR isolate 7124 = assay: organism not typed; assay type: cell-based, variola; settings: Vero, read-out: IC50, VAR isolate 7124
VAR isolate Minn124 = assay: organism not typed; assay type: cell-based, variola minor; settings: Vero, read-out: IC50, VAR isolate Minn124
VAR isolate Eth17 = assay: organism not typed; assay type: cell-based, variola; settings: Vero, read-out: IC50, VAR isolate Eth17
VAR isolate Kali-Muthu = assay: organism not typed; assay type: cell-based, variola; settings: Vero, read-out: IC50, VAR isolate Kali-Muthu
VAR isolate Rumbec = assay: organism not typed; assay type: cell-based, variola; settings: Vero, read-out: IC50, VAR isolate Rumbec
VAR isolate Juba = assay: organism not typed; assay type: cell-based, variola; settings: Vero, read-out: IC50, VAR isolate Juba
VAC = settings: cited from earlier work

Structure (SMILES)	IC50 (VAR isolate 102) [µg/mL]	IC50 (VAR isolate Heidelberg) [µg/mL]	activity in murine tailpox models [1]	IC50 (VAR isolate V72-119) [µg/mL]	IC50 (VAR isolate 7124) [µg/mL]	IC50 (VAR isolate Minn124) [µg/mL]	IC50 (VAR isolate Eth17) [µg/mL]	IC50 (VAR isolate Kali-Muthu) [µg/mL]	IC50 (VAR isolate Rumbec) [µg/mL]	IC50 (VAR isolate Juba) [µg/mL]	activity in vivo, VAC mouse model (VAC)
NC(=O)c1ncn([C@@H]2O[C@H](CO)[C@@H](O)[C@H]2O)n1 [Ribavirin]	110 (≈ 450 µM)	43 (≈ 176 µM)	active	35 (≈ 143 µM)	36 (≈ 147 µM)	32 (≈ 131 µM)	61 (≈ 250 µM)				
Nc1ccn(C[C@@H](CO)OCP(=O)(O)O)c(=O)n1 [Cidofovir, 1-[(S)-3-hydroxy-2-(phosphonomethoxy)-propyl]cytosine]	23 (≈ 82.4 µM)	15 (≈ 53.7 µM)		10 (≈ 35.8 µM)	20 (≈ 71.6 µM)	5 (≈ 17.9 µM)	11 (≈ 39.4 µM)	11 (≈ 39.4 µM)	10 (≈ 35.8 µM)	14 (≈ 50.1 µM)	active in vivo
